In series [1] the target is T1, human 5-HT1A receptor (Homo sapiens (Human), UniProt P08908). The series is described as follows: Test 2: agonist activity for human 5-HT1A receptor ([35S]GTPγS binding). The settings on record: for pEC50: [35S]GTPγS binding, concentration at which half the activity of Emax was obtained; for Emax at 10 µM: agonist activity in the presence of 10 μM of compound, relative to 100 μmol/L 5-HT. It counts as biochemical. An outline of the steps:
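Membranes from CHO cells expressing human 5-HT1A incubated with compound, GDP-containing buffer and [35S]GTPγS for 60 min at room temperature. Bound radioactivity collected by glass-fibre filtration and counted by liquid scintillation; agonist activity derived from a formula.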
On the technique in general: GTPγS resists hydrolysis and so accumulates on activated G proteins.

The target in series [2] is T1, human 5-HT1A receptor. As to the kind of experiment: Test 1: binding activity for human 5-HT1A receptor ([3H]8-OH-DPAT, CHO cell membrane fraction). An outline of the steps:
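Membranes incubated with [3H]8-OH-DPAT and compound for 60 min at room temperature, then filtered on polyethylenimine-coated glass-fibre plates and counted by liquid scintillation. IC50 from Hill analysis; Ki = IC50/(1+S/Kd), Kd from saturation binding on the same membranes.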

Series [3] can be described thus: Test 4: metabolic stability test in human hepatic microsome. The settings on record: 0.1 mg/mL microsome, 0.1 μmol/L compound, 37° C., 30 minutes. It counts as in vitro ADME. The procedure, abridged: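 Compound at 0.1 μmol/L incubated 30 min at 37° C with human liver microsomes (0.1 mg/mL) and NADPH (3.2 mmol/L) in 25 mmol/L phosphate buffer, pH 7.4. Residual compound measured by LC-MS; stability (mL/min/mg protein) = −LN(residual ratio)/30/0.1.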

In the next series the target is human D2 receptor (Homo sapiens (Human), UniProt P14416). As to the kind of experiment: Test 1: binding activity for human D2 receptor ([3H]Spiperone, CHO cell membrane fraction). The settings on record: human D2 receptor, [3H]Spiperone. The procedure, abridged:
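CHO-cell membranes with [3H]ketanserin (5-HT2A) or [3H]spiperone (D2) were incubated with compound for 60 min at room temperature, then filtered, and bound radioactivity was counted by scintillation. Ki = IC50/(1+S/Kd), with ligand Kd from saturation binding on the same membranes.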

In a further series the target is hERG channel (Homo sapiens (Human), UniProt Q12809). As to the kind of experiment: Test 6-1: inhibitory activity for hERG channel (auto patch clamp, Qpatch). Format: cell-based. The settings on record: whole cell auto patch clamp, hERG-CHO cells; read-out: hERG inhibition IC50. The procedure, abridged:
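Whole-cell patch clamp on an automated system using CHO cells stably expressing human hERG (IKr); 15 s pulse interval. Four increasing compound concentrations applied cumulatively; mean peak tail current from last 3 stimulations per concentration used. IC50 from inhibition versus pre-compound current, fitted by Hill equation.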
Background: The hERG channel carries a current that helps repolarise heart muscle cells.

pEC50, pIC50, pKi: −log10 of the molar value. Bounds are passed on as bounds.

The values that follow come from patent US10745401B2, “Condensed lactam derivative” (Sumitomo Dainippon Pharma Co., Ltd., priority 2018, dated 2020).

hERG channel, sequence (Q12809 whole entry): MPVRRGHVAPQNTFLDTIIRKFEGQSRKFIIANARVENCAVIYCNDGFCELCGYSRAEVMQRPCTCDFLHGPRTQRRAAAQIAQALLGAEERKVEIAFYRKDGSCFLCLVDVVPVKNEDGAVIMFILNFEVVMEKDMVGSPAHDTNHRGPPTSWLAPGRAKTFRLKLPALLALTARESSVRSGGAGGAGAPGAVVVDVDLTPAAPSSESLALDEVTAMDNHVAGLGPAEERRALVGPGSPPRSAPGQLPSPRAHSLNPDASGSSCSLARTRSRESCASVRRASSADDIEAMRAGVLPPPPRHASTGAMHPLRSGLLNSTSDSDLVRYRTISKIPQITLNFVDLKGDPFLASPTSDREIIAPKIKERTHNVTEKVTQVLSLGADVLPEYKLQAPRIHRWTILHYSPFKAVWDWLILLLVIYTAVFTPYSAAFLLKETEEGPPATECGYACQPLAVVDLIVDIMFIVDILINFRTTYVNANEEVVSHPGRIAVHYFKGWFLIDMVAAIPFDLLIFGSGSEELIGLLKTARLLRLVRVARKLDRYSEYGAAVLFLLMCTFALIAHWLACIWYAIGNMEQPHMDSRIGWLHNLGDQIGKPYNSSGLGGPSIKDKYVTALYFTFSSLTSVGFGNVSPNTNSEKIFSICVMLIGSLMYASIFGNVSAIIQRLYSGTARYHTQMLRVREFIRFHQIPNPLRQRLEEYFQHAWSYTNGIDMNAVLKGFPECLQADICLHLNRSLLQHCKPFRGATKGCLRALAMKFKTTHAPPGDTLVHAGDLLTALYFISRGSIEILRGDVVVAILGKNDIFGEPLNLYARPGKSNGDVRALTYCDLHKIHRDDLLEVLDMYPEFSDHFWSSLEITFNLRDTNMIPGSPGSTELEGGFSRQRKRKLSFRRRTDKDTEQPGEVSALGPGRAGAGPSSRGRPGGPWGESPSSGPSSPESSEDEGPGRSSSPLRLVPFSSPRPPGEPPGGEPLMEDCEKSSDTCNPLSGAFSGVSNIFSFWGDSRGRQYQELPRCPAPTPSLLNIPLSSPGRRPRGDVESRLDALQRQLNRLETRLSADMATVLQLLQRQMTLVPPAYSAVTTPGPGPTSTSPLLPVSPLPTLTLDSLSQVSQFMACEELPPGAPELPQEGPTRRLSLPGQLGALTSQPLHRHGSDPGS
T1 sequence (P08908 whole entry): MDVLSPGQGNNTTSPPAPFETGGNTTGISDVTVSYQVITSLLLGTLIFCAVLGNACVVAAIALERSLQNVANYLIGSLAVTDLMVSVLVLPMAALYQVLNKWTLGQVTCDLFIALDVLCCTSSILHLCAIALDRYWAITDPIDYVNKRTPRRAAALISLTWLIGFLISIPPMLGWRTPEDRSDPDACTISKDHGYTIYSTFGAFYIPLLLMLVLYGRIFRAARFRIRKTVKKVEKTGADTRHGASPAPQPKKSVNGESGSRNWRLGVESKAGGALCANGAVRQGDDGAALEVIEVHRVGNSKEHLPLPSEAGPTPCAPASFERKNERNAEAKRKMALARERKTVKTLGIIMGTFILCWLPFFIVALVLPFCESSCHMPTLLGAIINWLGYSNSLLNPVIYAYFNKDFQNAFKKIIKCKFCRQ
human D2 receptor, sequence (P14416 whole entry): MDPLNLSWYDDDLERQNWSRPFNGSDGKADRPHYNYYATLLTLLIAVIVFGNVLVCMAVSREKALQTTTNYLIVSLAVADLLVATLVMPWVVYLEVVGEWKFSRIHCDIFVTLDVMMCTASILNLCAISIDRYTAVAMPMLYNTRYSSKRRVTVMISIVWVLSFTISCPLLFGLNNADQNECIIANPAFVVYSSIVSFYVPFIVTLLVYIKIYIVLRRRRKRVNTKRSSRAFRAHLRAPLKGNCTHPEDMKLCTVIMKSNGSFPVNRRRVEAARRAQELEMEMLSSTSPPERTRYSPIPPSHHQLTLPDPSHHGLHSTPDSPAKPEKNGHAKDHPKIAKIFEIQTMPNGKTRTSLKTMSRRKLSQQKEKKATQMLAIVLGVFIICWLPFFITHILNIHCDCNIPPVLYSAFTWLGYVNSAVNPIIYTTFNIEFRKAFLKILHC

In general, pEC50 refers to the EC50 on a negative log10 scale, so that one unit is a factor of ten. A high value points to a low EC50. One may read the Emax as the maximal effect, on the per cent scale that the assay sets. One may read the pKi as the Ki on a negative log10 scale, so that one unit is a factor of ten. Lower therefore signals a large Ki. Broadly, the pIC50 is the IC50 on a negative log10 scale, so that one unit is a factor of ten. Consider `O=C1c2cnccc2C2(CC2)CN1CCN1CCN(c2noc3ccccc23)CC1` [Example 136], for which, on human 5-HT1A receptor [1], the pEC50 is 6.25 and the Emax at 10 µM came out at 30%. Besides, the pKi at human 5-HT1A receptor [2] was 7.12. Besides, the “Metabolic stability in human hepatic microsome” value (from here on “Metabolic stability”) in series [3] was determined as 0.598 mL/min/mg protein. This molecule gave a pKi at human D2 receptor of 5.64. On hERG channel, the negative logarithm of the IC50 (pIC50) is 5.22.
On to `Cc1noc2ccn(CCN3CCC(c4noc5ccccc45)CC3)c(=O)c12` [Example 132], for which, at human 5-HT1A receptor [1], the pEC50 was 7.13. Also, the Emax at 10 µM on human 5-HT1A receptor [1] is 59%. For the same molecule, the results for the pKi on human 5-HT1A receptor [2] and on human D2 receptor were 7.80 and 6.12, respectively. Further, in series [3], the “Metabolic stability” value came to 0.148 mL/min/mg protein. At hERG channel, the negative-log IC50 (pIC50) is 6.15.
The molecule `Cn1cnc2c1C(=O)N(CCN1CCC(c3noc4ccccc34)CC1)CCC2` [Example 134] gave a pEC50 at human 5-HT1A receptor [1] of 6.66. Besides, the Emax at 10 µM on human 5-HT1A receptor [1] turned out to be 41%. The pKi is 7.19 on human 5-HT1A receptor [2] and 6.51 at human D2 receptor. For the same molecule, the “Metabolic stability” value in series [3] is reported as less than 0.05 mL/min/mg protein. Moreover, the pIC50 on hERG channel is 5.46.
With `Cc1c2c(nn1C)CCN(CCN1CCN(c3nsc4ccccc34)CC1)C2=O` [Example 65], on human 5-HT1A receptor [1], the pEC50 is 8.68 and the Emax at 10 µM is 72%. In addition, the pKi on human 5-HT1A receptor [2] is 9.05. In addition, the “Metabolic stability” value in series [3] was found to be 0.126 mL/min/mg protein. This molecule gave a pKi on human D2 receptor of 6.65. Besides, the negative-log IC50 (pIC50) on hERG channel was 5.36.
Take `O=C1c2cn(C3CC3)nc2CCN1CCN1CCN(c2nsc3ccccc23)CC1` [Example 75]: on human 5-HT1A receptor [1], the pEC50 is 8.15. Moreover, the maximum response (Emax) at 10 µM at human 5-HT1A receptor [1] worked out at 56%. The pKi at human 5-HT1A receptor [2] was 8.62; at human D2 receptor it was 6.68. For the same molecule, in series [3], the “Metabolic stability” value turned out to be 0.174 mL/min/mg protein. Further, the pIC50 at hERG channel is 5.92.
Regarding `Cc1nccc2c1C(=O)N(CCN1CCN(c3noc4ccccc34)CC1)CC2` [Example 85], the pEC50 at human 5-HT1A receptor [1] was 7.39. Besides, the Emax at 10 µM on human 5-HT1A receptor [1] turned out to be 35%. Also, the results for the pKi on human 5-HT1A receptor [2] and on human D2 receptor were 7.00 and 5.97, respectively. Moreover, the “Metabolic stability” value in series [3] is recorded as 0.046 mL/min/mg protein. Also, at hERG channel, the pIC50 was less than 5.00.
As for `Cc1nc(C)c2c(n1)CCN(CCN1CCC(c3noc4ccccc34)CC1)C2=O` [Example 139], on human 5-HT1A receptor [1], the pEC50 was 7.14 and the Emax at 10 µM was determined as 48%. For the same molecule, on human 5-HT1A receptor [2], the pKi is 7.69. Further, the “Metabolic stability” value in series [3] is reported as less than 0.05 mL/min/mg protein. For the same molecule, the pKi on human D2 receptor was 6.20. The pIC50 at hERG channel is 5.42.
As to `Cc1nn(C)c2c1C(=O)N(CCN1CCN(c3nsc4ccccc34)CC1)CC2` [Example 105, 5-{2-[4-(1,2-Benzoisothiazol-3-yl)piperazin-1-yl]ethyl}-1,3-dimethyl-1,5,6,7-tetrahydro-4H-pyrazolo[4,3-c]pyridin-4-one], on human 5-HT1A receptor [1], the negative logarithm of the EC50 (pEC50) is 7.85 and the Emax at 10 µM worked out at 74%. The pKi on human 5-HT1A receptor [2] was 8.22. The “Metabolic stability” value in series [3] is recorded as 0.101 mL/min/mg protein. On human D2 receptor, this molecule showed a pKi of 6.71. Moreover, the negative logarithm of the IC50 (pIC50) on hERG channel was 5.10.
As for `Cn1ncc2c1C(=O)N(CCN1CCC(c3noc4ccccc34)CC1)CCC2` [Example 155], at human 5-HT1A receptor [1], the pEC50 was 7.13. At human 5-HT1A receptor [1], the Emax at 10 µM is 63%. In addition, the pKi at human 5-HT1A receptor [2] is 7.85; on human D2 receptor, 6.94. For the same molecule, the “Metabolic stability” value in series [3] is listed as 0.121 mL/min/mg protein. For the same molecule, the negative-log IC50 (pIC50) at hERG channel was 6.15.
In the case of `CC1CN(CCN2CCN(c3nsc4ccccc34)CC2)C(=O)c2ccn(C)c21` (stereo not drawn) [Example 79], on human 5-HT1A receptor [1], the pEC50 was 8.21 and the Emax at 10 µM was 63%. In addition, the pKi on human 5-HT1A receptor [2] was 9.72. Also, the “Metabolic stability” value in series [3] turned out to be 0.409 mL/min/mg protein. On human D2 receptor, this molecule had a negative-log Ki (pKi) of 6.62. Moreover, the pIC50 on hERG channel is 5.35.
As to `Cn1nc2c(c1C(F)(F)F)C(=O)N(CCN1CCN(c3nsc4ccccc34)CC1)CC2` [Example 78], at human 5-HT1A receptor [1], the pEC50 was 9.11 and the Emax at 10 µM was found to be 66%. For the same molecule, the pKi on human 5-HT1A receptor [2] is 9.34. Moreover, the “Metabolic stability” value in series [3] turned out to be 0.459 mL/min/mg protein. This molecule also gave a negative-log Ki (pKi) on human D2 receptor of 6.46. The pIC50 at hERG channel was 5.26.
